Positions of bridges follow the written chain, without caps; N, C: chain ends. Non-standard residues stand in square brackets, D forms with d. Residues, ends and D or L forms follow the SMILES beside them. Bip = N[C@@H](Cc1ccc(-c2ccccc2)cc1)C(=O)O; NMeF = CN[C@@H](Cc1ccccc1)C(=O)O; Ala(CN) = N#CC[C@H](N)C(=O)O; NMeA = CN[C@@H](C)C(=O)O; Orn = NCCC[C@H](N)C(=O)O; Dab = NCC[C@H](N)C(=O)O; Abu = CC[C@H](N)C(=O)O; Sar = CNCC(=O)O
Each molecule was assayed against T1, human PD-1 (Jurkat-PD-1 cells) / PE-labeled human PD-L1-Ig (Homo sapiens, UniProt Q15116) (assay: Jurkat-PD-1 Cell Binding High-Content Screening Assay (CBA); Jurkat hPD1-PDL1 assay). Settings: Jurkat cell line over-expressing human PD-1; PE-labeled PD-L1-Ig 20 nM final; compound incubated 2 hours at 37° C.; read-out: Jurkat HPD1-PDL1 IC50.
T1 construct: expressed in transfected cells; host or cells: Jurkat cell line over-expressing human PD-1
Procedure, shortened: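 Cell binding by imaging: Jurkat line stably over-expressing human PD-1, compound pre-exposure 2 h at 37° C, PE-conjugated PD-L1-Ig 20 nM final, medium DMEM containing 10% FCS.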

T1 sequence (Q15116 25-288): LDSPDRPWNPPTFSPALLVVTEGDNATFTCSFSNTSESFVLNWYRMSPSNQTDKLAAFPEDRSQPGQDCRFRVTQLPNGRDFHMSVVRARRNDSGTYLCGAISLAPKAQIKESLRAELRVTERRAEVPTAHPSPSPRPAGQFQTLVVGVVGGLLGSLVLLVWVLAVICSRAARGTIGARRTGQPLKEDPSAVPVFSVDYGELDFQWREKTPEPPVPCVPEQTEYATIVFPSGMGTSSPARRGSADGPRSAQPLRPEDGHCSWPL

Structure (SMILES) | IC50 [nM]
CC(C)C[C@@H]1NC(=O)[C@H](CCN)NC(=O)[C@H](Cc2ccccc2)N(C)C(=O)[C@H](C)N(C)C(=O)[C@H](CCC(=O)O)NC(=O)[C@H](Cc2ccc(-c3ccccc3)cc2)NC(=O)[C@H](C(C)C)NC(=O)[C@H](Cc2c[nH]c3ccccc23)NC(=O)[C@H](CC(=O)O)NC(=O)[C@H](Cc2ccc(O)cc2)NC(=O)[C@H](CC(N)=O)NC(=O)CSC[C@@H](C(=O)N[C@@H](C)C(N)=O)NC(=O)[C@H](CCCN)NC(=O)[C@H](C(C)C)NC1=O [Example 1380] ({CH2CO}-NYDWV[Bip]E[NMeA][NMeF][Dab]LV[Orn]CA-NH2; thioether N-14) | 70
CC(C)C[C@@H]1NC(=O)[C@H](CCCNC(=N)N)NC(=O)[C@H](Cc2ccccc2)N(C)C(=O)[C@H](C)N(C)C(=O)[C@H](CCCNC(=N)N)NC(=O)[C@H](Cc2ccc(-c3ccccc3)cc2)NC(=O)[C@H](C(C)C)NC(=O)[C@H](Cc2c[nH]c3ccccc23)NC(=O)[C@H](CC(=O)O)NC(=O)[C@H](Cc2ccc(O)cc2)NC(=O)[C@H](Cc2ccccc2)NC(=O)CSC[C@@H](C(=O)N[C@@H](C)C(N)=O)NC(=O)[C@H](CO)NC(=O)[C@H](C(C)C)NC1=O [Example 1074] ({CH2CO}-FYDWV[Bip]R[NMeA][NMeF]RLVSCA-NH2; thioether N-14) | 190
CC[C@@H]1NC(=O)[C@H](Cc2c[nH]c3ccccc23)NC(=O)[C@H](CC(=O)O)NC(=O)[C@H](Cc2ccc(O)cc2)NC(=O)[C@H](Cc2ccccc2)NC(=O)CSC[C@@H](C(=O)NCC(N)=O)NC(=O)[C@H](CO)NC(=O)[C@H](C(C)C)NC(=O)[C@H](CC(C)C)NC(=O)[C@H](CCCNC(=N)N)NC(=O)[C@H](Cc2ccccc2)N(C)C(=O)[C@H](C)N(C)C(=O)[C@H](CCCNC(=N)N)NC(=O)[C@H](Cc2ccc(-c3ccccc3)cc2)NC1=O [Example 1336] ({CH2CO}-FYDW[Abu][Bip]R[NMeA][NMeF]RLVSCG-NH2; thioether N-14) | 410

Continued by falling IC50, values first:

IC50 [nM] | Structure (SMILES)
240 | CC(C)C[C@@H]1NC(=O)[C@H](Cc2c[nH]c3ccccc23)NC(=O)[C@H](CC(=O)O)NC(=O)[C@H](Cc2ccc(O)cc2)NC(=O)[C@H](Cc2ccccc2)NC(=O)CSC[C@@H](C(=O)N[C@@H](C)C(N)=O)NC(=O)[C@H]([C@@H](C)O)NC(=O)[C@H](C(C)C)NC(=O)[C@H](CC(C)C)NC(=O)[C@H](CCN)NC(=O)[C@H]2CCCN2C(=O)[C@H](CCN)NC(=O)[C@H](C(C)C)NC(=O)[C@H](Cc2ccc(-c3ccccc3)cc2)NC1=O [Example 1416] ({CH2CO}-FYDWL[Bip]V[Dab][dP][Dab]LVTCA-NH2; thioether N-14)
110 | CC(C)C[C@@H]1NC(=O)[C@H](C(C)C)NC(=O)CN(C)C(=O)[C@H](C)N(C)C(=O)[C@H](C(C)C)NC(=O)[C@H](Cc2ccc(-c3ccccc3)cc2)NC(=O)[C@H](Cc2ccc(O)cc2)NC(=O)[C@H](Cc2c[nH]c3ccccc23)NC(=O)[C@H](CC(=O)O)NC(=O)[C@H](Cc2ccc(O)cc2)NC(=O)[C@H](Cc2ccccc2)NC(=O)CSC[C@@H](C(=O)NCC(N)=O)NC(=O)[C@H](CO)NC(=O)[C@H](C(C)C)NC1=O [Example 1235] ({CH2CO}-FYDWY[Bip]V[NMeA][Sar]VLVSCG-NH2; thioether N-14)
10 | CC(C)C[C@@H]1NC(=O)[C@H](Cc2c[nH]c3ccccc23)NC(=O)[C@H](CC#N)NC(=O)[C@H](Cc2ccc(O)cc2)NC(=O)[C@H](Cc2ccccc2)NC(=O)CSC[C@@H](C(=O)N[C@@H](C)C(N)=O)NC(=O)[C@H](CO)NC(=O)[C@H](C(C)C)NC(=O)[C@H](CC(C)C)NC(=O)[C@H](CC(N)=O)NC(=O)[C@H]2CCCN2C(=O)[C@H](C)N(C)C(=O)[C@H](C(C)C)NC(=O)[C@H](Cc2ccc(-c3ccccc3)cc2)NC1=O [Example 1429] ({CH2CO}-FY[Ala(CN)]WL[Bip]V[NMeA][dP]NLVSCA-NH2; thioether N-14)
